Test results: article PMC9388626, “STUB1 is an intracellular checkpoint for interferon gamma sensing” (Scientific Reports, 2022)

Test system: B16-F10 cells
Assay: Proteomics by mass spectrometry
Type: cell-based, murine
Experimental: After overnight incubation, the culture media were replaced with fresh media (DMEM + 10% FBS) supplemented with 0.03 ng ml^−1 of recombinant mouse IFNγ (R&D Systems, #485-MI-100). After 24 h treatment, the cells were trypsinized, collected and washed twice with 0.5 ml PBS. The cell pellets collected from three independent experiments on separate day were lysed in 100 µl of lysis buffer containing 4% sodium dodecyl sulfate, 50 mM Tris–HCl pH 7.5, 50 µg ml^−1 of DNase (Roche, #10104159001), 50 µg ml^−1 of RNase (Roche, #10109169001) and Halt protease inhibitor cocktail (Thermo Scientific, #78430) on ice for 30 min followed by 65 °C for 30 min. Lysates were clarified by centrifugation at 16,000 g at 10 °C for 30 min. Protein content was re-extracted from the pellet with 50 µl of lysis buffer, sonicated with a single burst using a probe sonicator and heated at 95 °C for 10 min before centrifugation at 16,000 g at 10 °C for 15 min. Lysates from first and second extractions were pooled. Protein concentration was determined using BCA protein assay kit (Pierce, # 23225). Detergent removal and protein digestion were performed in centrifugal suspension trap columns (Protifi, C02-micro) according to the manufacturer’s instructions. Briefly, 80 µg protein extract from each sample was reduced with 50 mM dithiothreitol (Sigma, #43815) at 95 °C for 10 min and then alkylated with 100 mM iodoacetamide (Sigma, I2512) in the dark at ambient temperature for 30 min. The samples were acidified with 1.2% of phosphoric acid and mixed well with washing buffer consisting of 90% methanol and 100 mM ammonium bicarbonate. The samples were transferred to the suspension trap columns and centrifuged at 4000 g for 30 s. The columns were washed 3 times with washing buffer. Proteins trapped in the suspension bed were digested in 50 mM ammonium bicarbonate with trypsin and endoproteinase Lys-C (Promega, V5073) at enzyme to protein ratio 1:25 in a 47 °C waterbath for 2 h. Peptides were eluted firstly with 50 mM ammonium bicarbonate, then with 0.2% formic acid and lastly with 50% acetonitrile and 0.2% formic acid. The eluates were pooled and vacuum dried completely. Dried peptides were reconstituted with 0.1% formic acid in water, followed by injecting 4 µg for mass spectrometry analysis. Peptides were loaded on a reverse phase EASY-Spray column (50 cm × 75 μm inner diameter) operated using Easy-nLC 1200 (Thermo Fisher Scientific) coupled online to a Q-Exactive HF-X mass spectrometer (Thermo Fisher Scientific). Peptides were separated using a 120 min linear gradient at a flow rate of 300 nL min^−1. The Q-Exactive was operated in ‘top-10’ data-dependent acquisition (DDA) mode with full scan acquired at a resolution of 120,000 (scan range 200–1800 m/z) with an automatic gain control (AGC) target of 3e6. The top ten most abundant ions from the full scan were isolated with an isolation width of 0.7 m/z and fragmented by higher energy collisional dissociation (HCD) with normalized collision energy (NCE) of 27. MS/MS scan was acquired at a resolution of 30,000 with an AGC target of 1e5. The default charge state was set at 2 and dynamic exclusion was enabled for 10 s. Maximum ion injection time for full scan and MS/MS scan were 100 ms and 105 ms respectively.
DDA raw files were processed with Proteome Discoverer 2.4 using Sequest HT search engine where mass spectrometric data was searched against SwissProt TaxID 10090 mouse database (v2017-10-25). Percolator was used to validate search results based on the concatenated mode where only the best scoring PSMs (target/decoy) were considered. Trypsin was specified as the enzyme, cleaving after all lysine and arginine residues and allowing up to two missed cleavages. Carbamidomethylation of cysteines was set as fixed modification while variable modifications included oxidation of methionine, acetylation of N-terminus, N-terminal loss of methionine and N-terminal loss of metionine along with the addition of an acetyl group. […]

gStub1 #1 (guide GCATTGCTAAGAAGAAGCGC; chemistry not given here)
Log2(FC) (B2M (Fig. 2g)): 2.591
Log2(FC) (BST2 (Fig. 2g)): 2.607
Log2(FC) (ERAP1 (Fig. 2g)): 2.501
Log2(FC) (GBP2 (Fig. 2g)): 4.916
Log2(FC) (H2-D1 (Fig. 2g)): 1.708
Log2(FC) (IFI35 (Fig. 2g)): 2.548
Log2(FC) (IRGM1 (Fig. 2g)): 4.787
Log2(FC) (MOV10 (Fig. 2g)): 1.934
Log2(FC) (PSME1 (Fig. 2g)): 1.818
Log2(FC) (PSME2 (Fig. 2g)): 2.036
Log2(FC) (STAT1 (Fig. 2g)): 2.521
Log2(FC) (STAT3 (Fig. 2g)): 1.035
Log2(FC) (TGTP1/TGTP2 (Fig. 2g)): 7.1
